Measured values from publication PMC11475408, “All‐Inorganic Polyoxometalates Act as Superchaotropic Membrane Carriers” (Advanced Materials (Deerfield Beach, Fla.), 2023).
pEC50: −log10 of the molar value.

Key:
[1] = CF transport assay in anionic vesicles; type: biochemical; conditions: heptaArg cargo; for heptaArg Ymax, anionic vesicles / pEC50: CF assay, pH 7.4; for heptaArg Ymax, anionic vesicles: DMPE/DPPG/CHOL 1/2/1 (anionic), 13 µM phospholipids, 10 mM Tris, 140 mM NaCl; for pEC50 / heptaArg E, anionic vesicles: DMPE/DPPG/CHOL (anionic); for heptaArg E, anionic vesicles: f = 20.6
Description: To better mimic biological membranes, which contain negatively charged components and cholesterol, equivalent transport experiments were performed in anionic liposomes^[ [19], [20] ^] with the prototypal POM carriers, [PVW11]^4‒ and [SiMoW11]^4‒ . […] This encouraged us to transfer the experiments to CHO‐K1 (Chinese hamster ovary) cells, after we had confirmed sufficient stability of the most promising POM carriers, [PVW11]^4‒ and [SiMoW11]^4‒ , in the cellular nutrient mixture (F‐12 Ham's medium, Figures S26–S28C, Supporting Information).
Anionic vesicles were prepared analogously except for the lipid composition, DMPE/DPPG/CHOL (4.4/10.4/2.6 mg, 1/2/1 molar ratio, DMPE: 1,2‐dimyristoyl‐sn‐glycero‐3‐phosphoethanolamine; DPPG: 1,2‐dipalmitoyl‐sn‐glycero‐3‐phospho‐(1´‐rac‐glycerol); CHOL: cholesterol) in a 1:1 mixture of CHCl3 and MeOH (1 mL), the hydration (60 min) and extrusion were performed at 55 °C, and the employed buffers were 100 mM CF, 10 mM Tris, pH 7.4 and 10 mM Tris, 140 mM NaCl, pH 7.4 for rehydration and elution, respectively.
Vesicles stock solutions (5–10 µL) were diluted with the corresponding buffer in a disposable plastic cuvette and gently stirred (total volume 2000 µL, final lipid concentration 13 µM). Carboxyfluorescein fluorescence was monitored at λ em = 517 nm (λ ex = 492 nm) as a function of time after addition of POMs at 60 s, analyte at 120 s and Triton X‐100 (24 µL 1.2% wt/vol) at 600 s to lyse the vesicles, for calibration. Fluorescence intensities were normalized to fractional emission as (1) It=It−I0/I∞−I0 where I 0 = I t before POM addition and […] after lysis. For Hill analysis, I t before lysis was defined as transport activity, Y, and plotted against POM concentration, c, and fitted to the Hill Equation (2), to afford the activity in absence of POM, Y 0, the maximal activity, Y max, the concentration needed to achieve 50% of maximal activity, EC 50, and the Hill coefficient, n (2) Y=Y0+Ymax−Y0/1+EC50/c^n […]
Figure S8. Heptaarginine transport through anionic vesicles[22-23][24] (DMPE/DPPG/CHOL, 1/2/1 molar ratio) facilitated by [PVW11]4‒ (a) and [SiMoW11]4‒ (c). Transport activity as function of [PVW11]4‒ (b) and [SiMoW11]4‒ (d) concentration, solid lines correspond to the resulting fit with the Hill equation.
Table S5. Membrane transport parameters of active POMs towards different analytes and different lipid composition. […]
a) 13 µM phospholipids. b) 10 µM cargo. c) Maximal activity; ±2% error (SD). d) Effective concentration to reach 50% activity of Ymax; 5 % error (SD). e) Activation efficiency E = Ymax (pEC50/f), were pEC50 is the negative logarithm of the EC50, and f a scaling factor set to 20.6 to allocate E between 0

heptaarginine = test: ITC, POM into heptaarginine; type: binding; conditions: 10 mM Tris; for Ka/ 107, heptaarginine: pH 7.4, 298.15 K, value is Ka divided by 10^7, duplicates; for Ka, heptaarginine (Figure 2c,d): pH 7.4, POM/oligoarginine 100/8 and 200/10 µM
Description: (§1) All experiments were performed with a VP‐ITC MicroCalorimeter from MicroCal, Int,. at atmospheric pressure and 298.15 K. Solutions were degassed and thermostatic prior to the titration experiments in a ThermoVac accessory. A constant volume of POM ([PVW11]^4‒ or [SiMoW11]^4‒) (10 µL per injection) was injected into the oligopeptide solution (heptaArg, protamine, polyArg or heptaLys) in 10 mM Tris, pH 7.4 to determine the apparent binding affinity of [PVW11]^4‒ and [SiMoW11]^4‒ with the oligopeptides. Dilution heats were determined by titration of the POM into buffer and subtracted from the reaction heat. The neat reaction heat was fitted with Origin 7.0 software by using the “one‐set‐of‐sites” model to obtain the complex stability constant (K a) and molar reaction enthalpy (∆H°). The free energy (∆G°) and entropy changes (∆S°) were obtained according to the relation: ∆G° = −RTlnK a = ∆H°−T∆S°.
(§2) 4. Supramolecular interactions
(§3) Figure S10. Microcalorimetric titrations in 10 mM Tris, pH 7.4: Raw ITC data (top) for the sequential injections of POM solution into an oligoarginine solution, and apparent reaction heats (bottom) obtained from the integration of the calorimetric traces. […]
(§4) values and ± 0.5 kcal mol‒1 for ΔH and TΔS (duplicate measurements). Note that none of these interactions lead to any precipitation or aggregates, confirmed by the absence of any detectable signal by DLS. […]
Figure S11. Microcalorimetric titrations in 10 mM Tris, pH 7.4: Raw ITC data (top) for the sequential injections of POM solution into a heptalysine solution, and apparent reaction heats (bottom) obtained from the integration of the calorimetric traces. POM/heptalysine concentrations in µM: a, 200/8 and b, 150/10. Error data is 5% for the n values and ± 0.5 kcal mol‒1 for ΔH and TΔS (duplicate […]
Table S6. Binding constants (Ka in M‒1) and thermodinamic data (in kcal mol‒1) measured for the complex formation between the stable and active POMs and oligoarginines in 10 mM Tris, pH 7.4. a) […]
a) Error data is 5% for the n values and ± 0.5 kcal mol‒1 for ΔH and TΔS (duplicate measurements).

cationic oligopeptides = test: ITC, POM with the peptides (general statement); type: binding
Description: To affect membrane transport, any carrier needs to display an affinity toward the cargo as well as toward the lipid bilayer. Accordingly, the interaction between [PVW11]^4‒ and [SiMoW11]^4‒ and the peptides was analyzed by isothermal titration calorimetry (ITC, Figure 2c,d; and Figures S10 and S11, Supporting Information). […] (enthalpically driven, interaction with the peptide backbones, Table S6, Supporting Information) and Coulombic interactions (interaction with arginine and lysine side chains). The strong but reversible intermolecular interactions between the low‐charged POMs and the cationic oligopeptides present an interesting finding, which was measured for both, oligo‐ and polypeptides. Previous ITC studies have focused only on the binding of proteins with highly charged and therefore weakly chaotropic POMs (n < −6, Table S3, Supporting Information), where electrostatic interactions were implied as main driving force.^[ [65], [66], [67], [68], [69], [70], [71], [72], [73] ^]
All experiments were performed with a VP‐ITC MicroCalorimeter from MicroCal, Int,. at atmospheric pressure and 298.15 K. Solutions were degassed and thermostatic prior to the titration experiments in a ThermoVac accessory. […] Dilution heats were determined by titration of the POM into buffer and subtracted from the reaction heat. […]

protamine = test: ITC, POM into protamine; type: binding; conditions: 10 mM Tris, pH 7.4, value is Ka divided by 10^7
Description: as §1, §2, §3, §4

[2] = system: methicillin-resistant Staphylococcus aureus (SR3605, ATCC43300); conditions: in combination with β-Lactamase; Mueller-Hinton broth, pH 7.4, 34 °C; ref [8]; cited from earlier work
Description: page 4: 2. Literature survey Table S1. Survey of experimentally proven membrane penetration of POMs according to a search in Scopus (“polyoxometalate” and “membrane penetration”) up to the submission date of the manuscript.

| Substance | heptaArg Ymax, anionic vesicles [1] | pEC50 [1] | heptaArg E, anionic vesicles [1] | Ka/ 107, heptaarginine (heptaarginine) | Ka, heptaarginine (Figure 2c,d) (heptaarginine) | Supramolecular interaction with the peptides (order of magnitude) (cationic oligopeptides) | Ka/ 107, protamine (protamine) | MIC [2] |
| --- | --- | --- | --- | --- | --- | --- | --- | --- |
| K4[α‐Si^IVMo^VIW^VI 11O40]·24H2O [[SiMoW11]^4‒] | 61% | 4.22 | 3.6 | 0.6 M‒1 | 6.3e+06 M⁻¹ | ~10^7 M ^−1 | 1.7 M‒1 |  |
| K4[α‐P^VV^VW^VI 11O40]·4H2O [[PVW11]^4‒] | 45% | 4.30 | 2.8 | 5.7 M‒1 | 5.7e+07 M⁻¹ | ~10^7 M ^−1 | 25 M‒1 | 800 µg/mL |
